Entries after “also recorded” stand apart in the source; their conditions may differ.
What was measured:
[1] = Relative Energy Difference (RED) with cholesterol, calculated from HSP; conditions: for Relative Energy Difference (RED) with cholesterol: RED=Ra/Ro, Ro of cholesterol 12.6
Description: The extent to which two compounds will dissolve each other can be quantified using the equations developed by Hansen: (Ra)^2=4(δd2−δd1)^2+(δp2−δp1)^2+(δh2−δh1)^2 Eq. (1) RED=Ra/Ro Eq. (2)
Equation 1 calculates the relative magnitude difference of the three Hansen parameters of the two compounds to arrive at Ra. […] Equation 2 allows one to calculate the Relative Energy Difference (RED) of the solvent and the material we are trying to dissolve, by dividing Ra by Ro. Ra was calculated in Equation 1 and measures the magnitude of the difference of the HSP values of the two compounds. The units for the HSP parameters δd, δp, δh are MPa^1/2. […] The Relative Energy Difference (RED) is a dimensionless number which quantifies how well a solvent will dissolve a solute. For an RED>>1 the compounds will not dissolve. For an RED˜1, there will be some dissolution. For an RED<1 there will be a considerable amount of dissolution. Essentially, the smaller RED value, the more solute will dissolve into the solvent, with RED=1 being a threshold where a given solute is starting to be soluble in a given solvent.
Referring now to FIG. 6, this diagram provides a flow chart showing how the biocompatible microdroplet solvent emulsion can be formulated. […] For an example of compounds which might be included in 400, please refer to Tables 1, 2, 3 and 4. However, this list of tables is by no means exhaustive and other compounds could be added to this list. The number of compounds selected can comprise of 1, 2, 3 or as many as are deemed necessary, which is symbolized by the variable n. The HSP parameters of a homogenous mixture of compounds are the weighted average of the HSP parameters of the individual components. […] Ideally, it is possible to formulate a solution such that the resultant RED of the mixture is smaller than the RED of any of the individual components.
The δdm, δpm, δhm calculated using Eq. 9 are the Hansen solubility parameters of the homogenous mixture, where m denotes mixture, and fi depicts the fraction of each of the n components used to fabricate the biocompatible solvent. Equation 10 can be used to calculate the RED of the final mixture, where Ro is the interaction radius of the cholesterol, or other component of arterial plaque one desires to dissolve using the biocompatible microdroplets and […] represents the Hansen solubility constants of cholesterol (dispersion, polar and hydrogen bonding components) or the HSP parameter of the arterial plaque which is being targeted.

[2] = single compound; cited from earlier work
[3] = Dissolving cholesterol by microdroplets in whole blood
Source text: (§1) To effectively dissolve arterial plaque in-vivo it is very important that the biocompatible solvent be sufficiently insoluble in blood to allow a small discrete microdroplet to travel through the blood stream, from the injection point, to the plaque which is being treated. If the biocompatible solvent dissolves within the blood, such as an alcohol, the solubility parameters of the resultant mixture will be very nearly identical to that of blood and will not dissolve cholesterol or arterial plaque. Conversely, if a discrete microdroplet of the biocompatible solvent makes contact with the plaque, then the cholesterol molecule in the plaque will be surrounded by multiple molecules of the biocompatible solvent, which have similar solubility parameters as the cholesterol, and the cholesterol will be drawn away from the plaque and into the droplet. […] An organic salt, Esters, an organo-metallic compound could also be used as the main component or an addition to the biocompatible microdroplet solvent means. Essentially any organic molecule which can be administered intravenously with acceptable side effects, is sufficiently insoluble in blood to travel as a discrete microdroplet without being dissolved prior to reaching arterial plaque and which is capable of dissolving cholesterol, cholesterol esters or other materials within the arterial plaque, could potentially be used.
1,8-cineole is classified as a cyclic ether and a monoterpenoid. […] This chemical gives certain fruits such as apples and strawberries their fruity taste, and is used as an additive in bubble gums for this purpose. […] It is used as a fragrance or flavouring agent. […] It is produced natuarally by the organism, and is found in abundance in shark liver oil.

[4] = cited from earlier work; for mass fraction of cholesterol which will dissolve in a pure solution of the alcohol: 37° C.
[5] = Water insoluble solvents tested for dissolving cholesterol / arterial plaque; conditions: medium not stated
Source text: as §1

Row | Compound | Relative Energy Difference (RED) with cholesterol [1] | δd London dispersion HSP parameter [2] [MPa^1/2] | δh hydrogen bonding HSP parameter [2] [MPa^1/2] | δp polarity HSP parameter [2] [MPa^1/2] | further results
1 | CC1=CC(=O)C(C(C)C)CC1 (centres unmarked) [Piperitone] | 0.72 | 17 | 4.5 | 6.2 | 
2 | C=CC(C)(O)CCC=C(C)CCC=C(C)C (centres unmarked) [Nerolidol] | 0.64 | 16.4 | 8.7 | 2.7 | 
3 | CC1=CCC(=C(C)C)CC1 [Terpinolene] | 0.70 | 16.9 | 4.1 | 1.8 | 
4 | terpinene |  |  |  |  | efficacy of microdroplets at dissolving cholesterol in whole blood [3]: excellent results
5 | CCCO [Propanol, reference compound] | 1.10 |  |  |  | mass fraction of cholesterol which will dissolve in a pure solution of the alcohol [4]: 11%
6 | Bisabolene | 0.73 | 16.7 | 4 | 2.2 | 
7 | CC(C)=CCCC(C)=CCCC(C)=CCO [Farnesol] | 0.65 | 16.4 | 7.7 | 3.8 | 
8 | C=CC(C)(C)C(=O)C=C(C)C [Artemisia Ketone] | 0.83 | 15.9 | 5.1 | 5.8 | 
9 | C=CC(C)(CCC=C(C)C)OC(C)=O (centres unmarked) [Linalyl Acetate] | 0.76 | 16 | 5.5 | 2.8 | 
10 | Phellandrene | 0.76 | 16.5 | 3.9 | 1.6 | 
11 | CCO [Ethanol, reference compound] | 1.32 |  |  |  | mass fraction of cholesterol which will dissolve in a pure solution of the alcohol [4]: 3.3%
12 | O [water, reference compound] | 2.9 |  |  |  | mass fraction of cholesterol which will dissolve in pure water ([4]; pure water): 0.0000095%
13 | C=CCc1ccc(O)c(OC)c1 [Eugenol] | 0.53 | 18.1 | 11.6 | 7.1 | Ra^2 versus cholesterol ([1]; Eq. 1): 44; efficacy of microdroplets at dissolving cholesterol in whole blood [3]: excellent results
14 | CC(C)[C@@H]1CC[C@@H](C)CC1=O [Menthone] | 0.79 | 17 | 4.4 | 8.1 | 
15 | CC(C)C12CCC(C)(CC1)O2 [1,4-Cineole] | 0.70 | 17.1 | 3.7 | 3.6 | 
16 | CC(C)=CCC/C(C)=C/CC/C(C)=C/CC/C=C(\C)CC/C=C(\C)CCC=C(C)C [Squalene] | 0.52 | 17.6 | 6 | 3 | 

Row | Compound | Relative Energy Difference (RED) with cholesterol [1] | δd London dispersion HSP parameter [2] [MPa^1/2] | δh hydrogen bonding HSP parameter [2] [MPa^1/2] | δp polarity HSP parameter [2] [MPa^1/2] | further results
17 | CC(C)=CCCC(C)CCO (centres unmarked) [Citronellol] | 0.72 | 16 | 10.7 | 4.7 | 
18 | C=C(C)[C@H]1CC=C(C)CC1 (racemic) [Dipentene] |  | 16.7 | 4 | 2.2 | 
19 | CC(C)=CCCC(C)=CC=O [Citral] | 0.7 | 16.3 | 6.2 | 2.3 | 
20 | CC(C)CCC[C@@H](C)[C@H]1CC[C@H]2[C@@H]3CC=C4C[C@@H](O)CC[C@]4(C)[C@H]3CC[C@]12C [cholesterol, Cholesterol] |  | 20.4 | 9.4 | 2.8 | solubility of cholesterol in pure water ([4]; 30° C.): approximately 95 micrograms per litre; solubility of cholesterol in water ([4]; 30° C.): 0.000095 grams/litre
21 | CC(C)=CCCC(C)CC=O (centres unmarked) [Citronellal] | 0.78 | 16.2 | 5.2 | 5.9 | 
22 | C=C(C)C1CC=C(C)C(=O)C1 (centres unmarked) [Carvone] | 0.5 | 18 | 6.4 | 5.6 | efficacy of microdroplets at dissolving cholesterol in whole blood [3]: excellent results
23 | CC(C)=C1CC[C@@H](C)CC1=O [Pulegone] | 0.74 | 17.5 | 5.5 | 8.9 | 
24 | C=C(C)[C@@H]1CCC=C(C)C1 [Sylvestrene] | 0.74 | 16.6 | 4.1 | 3 | 
25 | CC/C=C\C/C=C\C/C=C\C/C=C\C/C=C\CCCC(=O)O [Elcosapentaenoic acid] |  |  |  |  | result of solvent testing (dissolving cholesterol) [5]: very promising results
26 | Brc1cccc2ccccc12 [1-Bromonaphthalene] |  |  |  |  | result of solvent testing (dissolving cholesterol) [5]: very promising results
27 | CC12CCC(CC1)C(C)(C)O2 [1,8-cineole] | 0.77 | 16.7 | 3.4 | 4.6 | efficacy at dissolving cholesterol, two experiments compared ([3]; up to a 4× difference in blood volume): identical to within measurement error; efficacy of microdroplets at dissolving cholesterol in whole blood [3]: extremely good efficacy; efficacy of microdroplets at dissolving cholesterol in whole blood ([3]; listed as 1,8 cineole): excellent results; also recorded: excellent efficacy
28 | C=CC(C)=CCC=C(C)C [Ocimene] | 0.62 | 16.5 | 9.1 | 2 | 
29 | CC1CCC(C(C)C)C(O)C1 (centres unmarked) [Menthol] | 0.63 | 16.6 | 10.6 | 4.7 | 
30 | C=CC(=C)CCC=C(C)C [Myrcene] | 0.78 | 16 | 5.1 | 2.2 | 
31 | CC(C)=CCC[C@H](C)[C@@H]1C=CC(C)=CC1 [Zingiberene] | 0.74 | 16.6 | 4.1 | 1.4 | 
32 | C=C(C)C1CC=C(C=O)CC1 (centres unmarked) [Perillaldehyde] | 0.68 | 17.1 | 5.9 | 6.9 | 
